Experimental data reported in patent US20230145213A1, “Pre-conditioned mesenchymal stem cells and preparations and applications thereof” (BUDDHIST TZU CHI MEDICAL FOUNDATION, priority 2021, published 2023).

Columns and labels:
SH-SY5Y cells [1] = test: Transwell co-culture assay, SH-SY5Y cell viability by MTT; format: cell-based
Source text: In this and the following examples, human neuroblastoma cell line SH-SY5Y (a cell model of dopaminergic neurons for Parkinson's disease research) that was damaged by 6-hydroxydopamine (6-OHDA, i.e., 2,4,5-trihydroxyphenethylamine)-induced oxidative stress was used to assess the effects of GA on the homing ability of MSCs and the neuroprotective effects of GA pre-treated MSCs and the exosomes derived therefrom. SH-SY5Y cells were obtained from the American Type Culture Collection (ATCC; Manassas, Va., USA). The SH-SY5Y cells were cultured in a humidified incubator at 37° C. with 5% CO2. DMEM (Life Technologies, USA) supplemented with 10% FBS (Hyclone, Thermo Fisher Scientific, USA) and 1% penicillin-streptomycin (Gibco, Thermo Fisher Scientific, USA) was used for culturing of the SH-SY5Y cells.
To determine whether GA can promote MSCs to rescue nerve cell death, transwell co-culture assay was performed where WJMSCs (2×10^4 cells) pre-treated with 0, 20, 40, or 80 μM GA for 24 hours were placed in the upper chamber of a transwell insert, and SH-SY5Y cells (3×10^4 cells) treated with 100 μM 6-OHDA were seeded in the bottom well of the transwell plate. After co-culture of the cells at 37° C. for 24 hours, the SH-SY5Y cell viability was determined by MTT assay. […]

SH-SY5Y cells [2] = test: Autophagic flux in SH-SY5Y cells by LC3B immunofluorescence and western blotting; format: cell-based, human
Procedure: SH-SY5Y cells under 6-OHDA stimulation were treated with exosomes isolated either from GA pre-treated WJMSCs (80 μM GA for 24 hours) or untreated WJMSCs. For immunofluorescence staining, the treated cells were fixed in 4% PFA, incubated with an anti-LC3B primary antibody followed by a fluorophore-conjugated secondary antibody, and stained with 4′,6-diamidino-2-phenylindole (DAPI). The SH-SY5Y cells were then visualized by a fluorescence microscope (Olympus).

SH-SY5Y cells [3] = test: Western blotting of apoptosis-related, anti-apoptotic and OXPHOS proteins in 6-OHDA-stimulated SH-SY5Y cells; format: cell-based, human; settings: FIG. 5C
Procedure: To further investigate the molecular events associated with the anti-apoptotic effects of GA pre-treated MSC-derived exosomes, the expression of apoptosis-related and anti-apoptotic proteins in 6-OHDA-stimulated SH-SY5Y cells was measured using western blotting. The damaged SH-SY5Y cells were treated with exosomes isolated either from GA pre-treated WJMSCs (80 μM GA for 24 hours) or untreated WJMSCs.
Moreover, the expression of mitochondrial proteins involved in oxidative phosphorylation (OXPHOS), including ATP5A, UQCRC2, MTCO1, SDHB, and NDUFB8, was examined by western blotting.

| Compound | protective effect of the GA pre-treated WJMSCs on SH-SY5Y viability in the presence of GW4869 (SH-SY5Y cells [1]; co-culture assay with exosome generation inhibitor, FIG. 3B) | LC3 puncta (autophagosome formation) in SH-SY5Y cells (SH-SY5Y cells [2]; immunofluorescence, anti-LC3B, FIG. 6A) | autophagy-related protein expression (Beclin-1, LC3B, p62) in SH-SY5Y cells (SH-SY5Y cells [2]; western blotting, FIG. 6B) | SH-SY5Y cell viability, effect of 6-OHDA (SH-SY5Y cells [1]; 100 μM 6-OHDA, MTT, FIG. 3A) | expression of mitochondrial OXPHOS proteins (ATP5A, UQCRC2, MTCO1, SDHB, NDUFB8) (SH-SY5Y cells [3]) |
| --- | --- | --- | --- | --- | --- |
| O=C(/C=C/c1ccc(/C=C/C(=O)Nc2ccc(C3=NCCN3)cc2)cc1)Nc1ccc(C2=NCCN2)cc1 [GW4869] | suppressed |  |  |  |  |
| NCCc1cc(O)c(O)cc1O [6-OHDA, 2,4,5-trihydroxyphenethylamine] |  | abundant | increased Beclin-1 and LC3B expression but decreased p62 protein expression | decreased SH-SY5Y cell viability | downregulated the expression of the OXPHOS proteins |
